The text below walks through data of patent US10448639B2, “Fungicidal pyrazoles” (FMC CORPORATION, priority 2009, dated 2019).

Assay [1] deals with Septoria tritici. Nature of the assay: Test G: wheat leaf blotch, preventive spray on wheat seedlings, visual disease rating. The following applies: for Test G rating (% disease control) / Test G disease control rating: wheat leaf blotch, 100 = 100% disease control; for pest or weed control at 200 µg/mL: Zymoseptoria tritici, in Triticum aestivum, 504 h, read-out: Test G rating (% disease control); for Test G disease control rating: sprayed the day before inoculation, 0 = no disease control relative to controls.

The test system of assay [2] is Alternaria solani. Kind of assay: Test C: tomato early blight, preventive spray on tomato seedlings, visual disease rating. As to conditions: for Test C rating (% disease control) / Test C disease control rating: tomato early blight, 100 = 100% disease control; for pest or weed control at 200 µg/mL: Alternaria solani, in Solanum lycopersicum, 168 h, read-out: Test C rating (% disease control); for Test C disease control rating: 0 = no disease control relative to controls.

Assay [3] relates to Septoria nodorum. Kind of assay: Test F: Septoria glume blotch, preventive spray on wheat seedlings, visual disease rating. As to conditions: for Test F rating (% disease control) / Test F disease control rating: 100 = 100% disease control; for pest or weed control at 200 µg/mL: Parastagonospora nodorum, in Triticum aestivum, 192 h, read-out: Test F rating (% disease control); for Test F disease control rating: 0 = no disease control relative to controls.

Assay [4] relates to Puccinia recondita f. sp. tritici. Kind of assay: Test H: wheat leaf rust, curative spray on inoculated wheat seedlings, visual disease rating. The following applies: for Test H rating (% disease control) / Test H disease control rating: wheat leaf rust, 100 = 100% disease control; for pest or weed control at 200 µg/mL: 144 h, read-out: Test H rating (% disease control); for Test H disease control rating: sprayed after inoculation, 0 = no disease control relative to controls.

Assay [5] has the same test system. Nature of the assay: Test I: wheat leaf rust, preventive spray on wheat seedlings, visual disease rating. As to conditions: for Test I rating (% disease control) / Test I disease control rating: wheat leaf rust, 100 = 100% disease control; for pest or weed control at 200 µg/mL: 192 h, read-out: Test I rating (% disease control); for Test I disease control rating: sprayed the day before inoculation, 0 = no disease control relative to controls.

For assay [6], the system named is Botrytis cinerea. Nature of the assay: Test B: tomato Botrytis, preventive spray on tomato seedlings, visual disease rating. The following applies: for Test B rating (% disease control) / Test B disease control rating: tomato Botrytis, 100 = 100% disease control; for pest or weed control at 200 µg/mL: Botrytis cinerea, in Solanum lycopersicum, 120 h, read-out: Test B rating (% disease control); for Test B disease control rating: 0 = no disease control relative to controls.
Text: General protocol for preparing test suspensions for Tests A-J: the test compounds were first dissolved in acetone in an amount equal to 3% of the final volume and then suspended at the desired concentration (in ppm) in acetone and purified water (50/50 mix by volume) containing 250 ppm of the surfactant Trem® 014 (polyhydric alcohol esters). The resulting test suspensions were then used in Tests A-J. Spraying a 200 ppm test suspension to the point of run-off on the test plants was the equivalent of a rate of 500 g/ha. Unless otherwise indicated, the rating values indicate a 200 ppm test suspension was used. (An asterisk “*” next to the rating value indicates a 40 ppm test suspension was used.)
The test suspension was sprayed to the point of run-off on tomato seedlings. The following day the seedlings were inoculated with a spore suspension of Botrytis cinerea (the causal agent of tomato Botrytis) and incubated in saturated atmosphere at 20° C. for 48 h, and then moved to a growth chamber at 24° C. for 3 additional days, after which time visual disease ratings were made.

In assay [7] the test system is Erysiphe graminis f sp. tritici. Nature of the assay: Test J: wheat powdery mildew, preventive spray on wheat seedlings, visual disease rating. The following applies: for Test J rating (% disease control) / Test J disease control rating: wheat powdery mildew, 100 = 100% disease control; for pest or weed control at 200 µg/mL: Blumeria graminis, in Triticum aestivum, 192 h, read-out: Test J rating (% disease control); for Test J disease control rating: sprayed the day before inoculation, 0 = no disease control relative to controls.

Where [8] appears, read: 0 = no control relative to controls.
Where [9] appears, read: Septoria glume blotch, 0 = no control relative to controls.
The mark [10] stands for this setting: curative, 0 = no control relative to controls.
The mark [11] stands for this setting: preventive, 0 = no control relative to controls.
Where [12] appears, read: preventive spray, 0 = no control.
Setting [13] is: Septoria glume blotch on wheat, preventive spray, 0 = no control.

On to `Cc1ccc(Oc2c(-c3c(F)cc(F)cc3F)c(C)nn2C)cc1F` [compound 187], for which the “Test G rating (% disease control)” value in assay [1] (setting [8]) was found to be 20%. Besides, the “Test C rating (% disease control)” value in assay [2] (setting [8]) was determined as 0%. Besides, the “Test F rating (% disease control)” value in assay [3] (setting [9]) is 0%. Moreover, the “Test H rating (% disease control)” value in assay [4] (setting [10]) was found to be 0%. For the same compound, the “Test I rating (% disease control)” value in assay [5] (setting [11]) was 9%. Further, the “Test B rating (% disease control)” value in assay [6] (setting [8]) is 33%. Also, the “Test J rating (% disease control)” value in assay [7] (setting [8]) was found to be 13%.

As for `Cc1nn(C)c(Oc2c(F)cc(C#N)cc2F)c1-c1ccc(F)cc1Br` [Compound 232, 4-[[4-(2-bromo-4-fluorophenyl)-1,3-dimethyl-1H-pyrazol-5-yl]oxy]-3,5-difluorobenzonitrile], the pest or weed control at 200 µg/mL turned out to be 100% in assay [1]; 99% in assay [2]; 99% in assay [3]; 0% in assay [4]; 100% in assay [5]; 100% in assay [6]. Also, the pest or weed control at 200 µg/mL in assay [7] is 100%.

Turning to `Cc1nn(C)c(Oc2c(F)cc(C#N)cc2F)c1-c1cccc(F)c1F` [compound 274], the “Test G rating (% disease control)” value in assay [1] (setting [8]) is given as 96%. Moreover, the “Test C rating (% disease control)” value in assay [2] (setting [8]) was 0%. Besides, the “Test F rating (% disease control)” value in assay [3] (setting [9]) stood at 0%. Besides, the “Test H rating (% disease control)” value in assay [4] (setting [10]) came out at 8%. In addition, in assay [5] (setting [11]), the “Test I rating (% disease control)” value was determined as 0%. Besides, the “Test B rating (% disease control)” value in assay [6] (setting [8]) stood at 8%. The “Test J rating (% disease control)” value in assay [7] (setting [8]) stood at 69%.

For the compound `COc1ccc(-c2c(C)nn(C)c2Nc2cc(F)ccc2F)c(Cl)c1` [compound 176], the “Test G rating (% disease control)” value in assay [1] (setting [8]) stood at 96%. Moreover, the “Test C rating (% disease control)” value in assay [2] (setting [8]) was determined as 71%. Further, the “Test F rating (% disease control)” value in assay [3] (setting [9]) turned out to be 0%. In addition, the “Test H rating (% disease control)” value in assay [4] (setting [10]) is 0%. Also, in assay [5] (setting [11]), the “Test I rating (% disease control)” value turned out to be 68%. In addition, in assay [6] (setting [8]), the “Test B rating (% disease control)” value stood at 100%. Moreover, the “Test J rating (% disease control)” value in assay [7] (setting [8]) amounted to 100%.

On to `Cn1nc(C2CC2)c(-c2ccc(F)cc2Cl)c1Nc1ccc(F)cc1F` [compound 108], for which the “Test G rating (% disease control)” value in assay [1] (setting [12]) is 98%. In assay [2] (setting [12]), the “Test C rating (% disease control)” value stood at 0%. For the same compound, the “Test F rating (% disease control)” value in assay [3] (setting [13]) worked out at 0%. Moreover, in assay [4] (curative spray, 0 = no control), the “Test H rating (% disease control)” value is 0%. Moreover, in assay [5] (setting [12]), the “Test I rating (% disease control)” value is 16%. The “Test B rating (% disease control)” value in assay [6] (setting [12]) amounted to 97%. The “Test J rating (% disease control)” value in assay [7] (setting [12]) amounted to 97%.

Turning to `COc1cc(F)c(-c2c(C)nn(C)c2Oc2c(F)cc(Cl)cc2F)c(F)c1` [Compound 58, 5-(4-Chloro-2,6-difluorophenoxy)-4-(2,6-difluoro-4-methoxyphenyl)-1,3-dimethyl-1H-pyrazole], the pest or weed control at 200 µg/mL was 98% in assay [1]; 100% in assay [2]; 89% in assay [3]; 82% in assay [4]; 100% in assay [5]; 98% in assay [6]. Besides, the pest or weed control at 200 µg/mL in assay [7] came to 100%.

Regarding `COc1ccc(F)c(Nc2c(-c3ccc(F)cc3F)c(C)nn2C)c1` [compound 244], in assay [1] (setting [8]), the “Test G rating (% disease control)” value came out at 91%. The “Test C rating (% disease control)” value in assay [2] (setting [8]) turned out to be 0%. In addition, the “Test F rating (% disease control)” value in assay [3] (setting [9]) amounted to 0%. In addition, the “Test H rating (% disease control)” value in assay [4] (setting [10]) is 0%. In assay [5] (setting [11]), the “Test I rating (% disease control)” value is given as 0%. Besides, in assay [6] (setting [8]), the “Test B rating (% disease control)” value amounted to 82%. Moreover, the “Test J rating (% disease control)” value in assay [7] (setting [8]) is recorded as 96%.

With `COc1cc(F)c(-c2c(C)nn(C)c2Nc2ccc(Cl)cc2)c(F)c1` [Compound 22, N-(4-chlorophenyl)-4-(2,6-difluoro-4-methoxyphenyl)-1,3-dimethyl-1H-pyrazol-5-amine], the pest or weed control at 200 µg/mL was determined as 94% in assay [1]; 85% in assay [2]; 90% in assay [3]; 9% in assay [4]; 94% in assay [5]; 90% in assay [6]. In addition, in assay [7], the pest or weed control at 200 µg/mL is 100%.

With `Cc1nn(C)c(Nc2c(F)cc(F)cc2F)c1-c1c(F)cc(C#N)cc1F` [compound 133], the “Test G rating (% disease control)” value in assay [1] (setting [12]) stood at 99%. Also, in assay [2] (setting [12]), the “Test C rating (% disease control)” value is given as 100%. The “Test F rating (% disease control)” value in assay [3] (setting [13]) is 60%. The “Test H rating (% disease control)” value in assay [4] (curative spray, 0 = no control) is reported as 0%. Further, the “Test I rating (% disease control)” value in assay [5] (setting [12]) worked out at 100%. In assay [6] (setting [12]), the “Test B rating (% disease control)” value was 100%. In assay [7] (setting [12]), the “Test J rating (% disease control)” value came out at 94%.

For `COc1ccc(Nc2c(-c3c(Cl)cccc3Cl)c(C)nn2C)cc1` [compound 333], the “Test G disease control rating” value in assay [1] was determined as 100%. Moreover, the “Test C disease control rating” value in assay [2] came out at 0%. Besides, the “Test F disease control rating” value in assay [3] (Septoria glume blotch on wheat) is recorded as 0%. The “Test H disease control rating” value in assay [4] is listed as 9%. Moreover, the “Test I disease control rating” value in assay [5] came out at 74%. In assay [6], the “Test B disease control rating” value is reported as 100%. Besides, the “Test J disease control rating” value in assay [7] is listed as 0%.

For `Cc1nn(C)c(Nc2c(F)cc(F)cc2F)c1-c1ccc(F)cc1Cl` [Compound 18, 4-(2-chloro-4-fluorophenyl)-1,3-dimethyl-N-(2,4,6-trifluorophenyl)-1H-pyrazol-5-amine], the pest or weed control at 200 µg/mL turned out to be 95% in assay [1]; 100% in assay [2]; 99% in assay [3]; 99% in assay [4]; 100% in assay [5]; 99% in assay [6]. Further, the pest or weed control at 200 µg/mL in assay [7] amounted to 100%.

On to `COc1ccc(-c2c(C)nn(C)c2Oc2ccc(C#N)cc2Cl)c(Cl)c1` [compound 311], for which, in assay [1], the “Test G disease control rating” value worked out at 100%. In addition, the “Test C disease control rating” value in assay [2] worked out at 0%. The “Test F disease control rating” value in assay [3] (Septoria glume blotch on wheat) was found to be 60%. Also, the “Test H disease control rating” value in assay [4] turned out to be 0%. For the same compound, in assay [5], the “Test I disease control rating” value came to 99%. Besides, the “Test B disease control rating” value in assay [6] was found to be 100%. Also, the “Test J disease control rating” value in assay [7] amounted to 91%.

Turning to `COc1ccc(-c2c(C)nn(C)c2Nc2ccc(F)cc2F)c(Cl)c1` [compound 160], the “Test G rating (% disease control)” value in assay [1] (setting [8]) worked out at 99%. Further, the “Test C rating (% disease control)” value in assay [2] (setting [8]) is 99%. In addition, the “Test F rating (% disease control)” value in assay [3] (setting [9]) is on record as 0%. Further, the “Test H rating (% disease control)” value in assay [4] (setting [10]) is reported as 8%. In addition, the “Test I rating (% disease control)” value in assay [5] (setting [11]) was 100%. Further, in assay [6] (setting [8]), the “Test B rating (% disease control)” value came out at 98%. The “Test J rating (% disease control)” value in assay [7] (setting [8]) is 100%.

Consider `COc1cc(F)c(-c2c(C)nn(C)c2Nc2ncc(F)cc2F)c(F)c1` [compound 128], for which the “Test G rating (% disease control)” value in assay [1] (setting [12]) is 99%. Also, the “Test C rating (% disease control)” value in assay [2] (setting [12]) worked out at 100%. The “Test F rating (% disease control)” value in assay [3] (setting [13]) was determined as 97%. Moreover, the “Test H rating (% disease control)” value in assay [4] (curative spray, 0 = no control) was 66%. The “Test I rating (% disease control)” value in assay [5] (setting [12]) came to 100%. The “Test B rating (% disease control)” value in assay [6] (setting [12]) is 100%. The “Test J rating (% disease control)” value in assay [7] (setting [12]) is given as 100%.

Turning to `COc1ccc(-c2c(C)nn(C)c2Oc2ccc(C#N)cc2Cl)c(Br)c1` [compound 318], the “Test G disease control rating” value in assay [1] is given as 100%. Moreover, the “Test C disease control rating” value in assay [2] was 0%. Besides, in assay [3] (Septoria glume blotch on wheat), the “Test F disease control rating” value is 0%. Moreover, the “Test H disease control rating” value in assay [4] worked out at 0%. In assay [5], the “Test I disease control rating” value is recorded as 97%. The “Test B disease control rating” value in assay [6] was 99%. Moreover, the “Test J disease control rating” value in assay [7] is listed as 89%.
